Data: PMC8828861 (Communications Biology, 2022)

B1: Mycobacterium tuberculosis transcription termination factor Rho (enzyme)
chain: TDTDLITAGESTDGKPSDAAATDPPDLNADEPAGSLATMVLPELRALANRAGVKGTSGMRKNELIAAIEEIRRQANGAPAVDRSAQEHDKGDRPPSSEAPATQGEQTPTEQIDSQSQQVRPERRSATREAGPSGSGERAGTAADDTDNRQGGQQDAKTEERGTDAGGDQGGDQQASGGQQARGDEDGEARQGRRGRRFRDRRRRGERSGDGAEAELREDDVVQPVAGILDVLDNYAFVRTSGYLPGPHDVYVSMNMVRKNGMRRGDAVTGAVRVPKEGEQPNQRQKFNPLVRLDSINGGSVEDAKKRPEFGKLTPLYPNQRLRLETSTERLTTRVIDLIMPIGKGQRALIVSPPKAGKTTILQDIANAITRNNPECHLMVVLVDERPEEVTDMQRSVKGEVIASTFDRPPSDHTSVAELAIERAKRLVEQGKDVVVLLDSITRLGRAYNNASPASGRILSGGVDSTALYPPKRFLGAARNIEEGGSLTIIATAMVETGSTGDTVIFEEFKGTGNAELKLDRKIAERRVFPAVDVNPSGTRKDELLLSPDEFAIVHKLRRVLSGLDSHQAIDLLMSQLRKTKNNYEFLVQVSKTTPGSMDSD
notes: also called MtbRho; WT MtbRho

What was measured:
[1] = target: M. tuberculosis Rho (MtbRho) (Mycobacterium tuberculosis, UniProt P9WHF3); assay type: binding
SEC-MALS = target: the molecule itself; assay: SEC-MALS

Chain of M. tuberculosis Rho (MtbRho) (P9WHF3 whole entry): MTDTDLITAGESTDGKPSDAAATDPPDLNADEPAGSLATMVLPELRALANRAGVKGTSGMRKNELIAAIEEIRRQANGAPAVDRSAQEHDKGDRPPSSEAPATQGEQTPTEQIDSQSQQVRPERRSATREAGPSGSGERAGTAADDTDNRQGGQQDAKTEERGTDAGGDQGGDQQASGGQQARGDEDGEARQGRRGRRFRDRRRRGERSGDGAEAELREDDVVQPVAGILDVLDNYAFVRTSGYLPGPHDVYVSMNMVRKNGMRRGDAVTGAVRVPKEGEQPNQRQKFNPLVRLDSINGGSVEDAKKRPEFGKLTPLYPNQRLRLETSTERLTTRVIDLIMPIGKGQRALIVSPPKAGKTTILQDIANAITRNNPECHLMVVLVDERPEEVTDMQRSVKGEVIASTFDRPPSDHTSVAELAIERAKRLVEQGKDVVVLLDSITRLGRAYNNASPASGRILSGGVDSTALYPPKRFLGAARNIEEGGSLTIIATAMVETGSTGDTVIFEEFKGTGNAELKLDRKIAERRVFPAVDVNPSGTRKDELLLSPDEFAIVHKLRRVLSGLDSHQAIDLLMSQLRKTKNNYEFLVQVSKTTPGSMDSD

| Molecule | cryo-EM structure, 3.3 Å, 6 ATP per hexamer [1] | stoichiometry N (SEC-MALS) |
| --- | --- | --- |
| Nc1ncnc2c1ncn2[C@@H]1O[C@H](COP(=O)(O)OP(=O)(O)OP(=O)(O)O)[C@@H](O)[C@H]1O [ATP] | clear electron density in all the ATPase pockets of MtbRho reveals that ATP ligands are held by a network | – |
| B1 | – | 6 |
